Where “and” joins values, the source holds several entries; their conditions need not be identical. Equal values may be shown once. Toxic doses and inconclusive results are not listed. Cut-off read from the data, not from the text of the source: active = T/C of 150% or more; inactive = T/C below 125%.
Test system: L1210 leukemia ip in BDF1 mice, survival T/C
Assay: NCI In Vivo Anticancer Drug Screen. Data for tumor model L1210 Leukemia (intraperitoneal) in B6D2F1 (BDF1) mice
Details: higher = longer survival
Outline: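 Tumor cells were implanted, animals were treated, and survival was followed. The result divides the treated measurement by the vehicle-control measurement.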

[1] = endpoint: mean survival time, dose: 100.0 mg/kg/injection, schedule: Q04DX002 (ip), vehicle: Klucel (hydroxypropylcellulose) (HPC)
[2] = endpoint: mean survival time, dose: 200.0 mg/kg/injection, schedule: Q04DX002 (ip), vehicle: Klucel (hydroxypropylcellulose) (HPC)
[3] = endpoint: mean survival time, dose: 400.0 mg/kg/injection, schedule: Q04DX002 (ip), vehicle: Klucel (hydroxypropylcellulose) (HPC)
[4] = endpoint: mean survival time, dose: 50.0 mg/kg/injection, schedule: Q01DX009 (ip), vehicle: saline with Tween-80
[5] = endpoint: mean survival time, dose: 100.0 mg/kg/injection, schedule: Q01DX009 (ip), vehicle: saline with Tween-80
[6] = endpoint: mean survival time, dose: 200.0 mg/kg/injection, schedule: Q01DX009 (ip), vehicle: saline with Tween-80
[7] = endpoint: mean survival time, dose: 50.0 mg/kg/injection, schedule: Q04DX002 (ip), vehicle: Klucel (hydroxypropylcellulose) (HPC)
[8] = endpoint: mean survival time, dose: 100.0 mg/kg/injection, schedule: Q04DX003 (ip), vehicle: Klucel (hydroxypropylcellulose) (HPC)
[9] = endpoint: mean survival time, dose: 200.0 mg/kg/injection, schedule: Q04DX003 (ip), vehicle: Klucel (hydroxypropylcellulose) (HPC)
[10] = endpoint: mean survival time, dose: 400.0 mg/kg/injection, schedule: Q04DX003 (ip), vehicle: Klucel (hydroxypropylcellulose) (HPC)

Measured: T/C

O=C1NC(O)CCN1C1OC(CO)C(O)C1O (stereo not drawn)
inactive: endpoint: mean survival time, dose: 25.0 mg/kg/injection, schedule: Q01DX009 (ip), vehicle: saline 101 % of control | endpoint: mean survival time, dose: 50.0 mg/kg/injection, schedule: Q01DX009 (ip), vehicle: saline 113 % of control | endpoint: mean survival time, dose: 50.0 mg/kg/injection, schedule: Q01DX015 (ip), vehicle: saline 98 % of control | endpoint: mean survival time, dose: 100.0 mg/kg/injection, schedule: Q01DX009 (ip), vehicle: saline 95 % of control | endpoint: mean survival time, dose: 100.0 mg/kg/injection, schedule: Q01DX015 (ip), vehicle: saline 94 % of control | endpoint: mean survival time, dose: 200.0 mg/kg/injection, schedule: Q01DX009 (ip), vehicle: saline 110 % of control | endpoint: mean survival time, dose: 400.0 mg/kg/injection, schedule: Q01DX009 (ip), vehicle: saline 90 % of control | endpoint: mean survival time, dose: 800.0 mg/kg/injection, schedule: Q01DX009 (ip), vehicle: saline 95 % of control | endpoint: median survival time, dose: 500.0 mg/kg/injection, schedule: Q01DX009 (ip), vehicle: saline 102 % of control | endpoint: median survival time, dose: 1000.0 mg/kg/injection, schedule: Q01DX009 (ip), vehicle: saline 94 % of control | endpoint: median survival time, dose: 2000.0 mg/kg/injection, schedule: Q01DX009 (ip), vehicle: saline 93 % of control

Nc1cc(C(=O)O)[nH]c(=S)n1
inactive: endpoint: mean survival time, dose: 100.0 mg/kg/injection, schedule: Q01DX Z (ip), vehicle: methylcellulose (MC) 100 % of control | endpoint: mean survival time, dose: 200.0 mg/kg/injection, schedule: Q01DX Z (ip), vehicle: methylcellulose (MC) 100 % of control

O=C(O)C1CCCCC1C(=O)Nc1ccc(Br)cc1 (stereo not drawn)
inactive: [1] 100 % of control | [2] 100 % of control | [3] 118 % of control

CCCCCCCCCC1CCC(C(=O)O)CC1 (stereo not drawn)
inactive: endpoint: mean survival time, dose: 75.0 mg/kg/injection, schedule: Q01DX009 (ip), vehicle: Klucel (hydroxypropylcellulose) (HPC) 105 % of control | endpoint: mean survival time, dose: 150.0 mg/kg/injection, schedule: Q01DX009 (ip), vehicle: Klucel (hydroxypropylcellulose) (HPC) 96 % of control | endpoint: mean survival time, dose: 300.0 mg/kg/injection, schedule: Q01DX009 (ip), vehicle: Klucel (hydroxypropylcellulose) (HPC) 98 % of control

C(=N\Nc1ccc2ccccc2n1)/c1ccccn1
inactive: endpoint: mean survival time, dose: 9.5 mg/kg/injection, schedule: Q01DX001 (ip), vehicle: other 94 % of control | endpoint: mean survival time, dose: 19.0 mg/kg/injection, schedule: Q01DX001 (ip), vehicle: other 103 % of control | endpoint: mean survival time, dose: 38.0 mg/kg/injection, schedule: Q01DX001 (ip), vehicle: other 94 % of control | endpoint: mean survival time, dose: 75.0 mg/kg/injection, schedule: Q01DX001 (ip), vehicle: other 108 % of control

O=C(O)c1cc2ccccc2o1
inactive: [4] 90 % of control | [5] 97 % of control

CC(CP(=O)(c1ccccc1)c1ccccc1)C(=O)O (stereo not drawn)
inactive: [5] 98 % of control | [6] 97 % of control | endpoint: mean survival time, dose: 400.0 mg/kg/injection, schedule: Q01DX009 (ip), vehicle: saline with Tween-80 98 % of control

Cc1cc(OC(=O)Nc2ccc(Cl)cc2Cl)c(C)cc1Cl
inactive: endpoint: mean survival time, dose: 12.5 mg/kg/injection, schedule: Q01DX009 (ip), vehicle: saline with Tween-80 95 % of control | endpoint: mean survival time, dose: 25.0 mg/kg/injection, schedule: Q01DX009 (ip), vehicle: saline with Tween-80 91 % of control | [4] 91 % of control | [5] 98 % of control

O=c1[nH]c(Cc2ccccc2)c(Br)c(=O)[nH]1
inactive: endpoint: mean survival time, dose: 50.0 mg/kg/injection, schedule: Q01DX001 (ip), vehicle: saline 102 % of control | endpoint: mean survival time, dose: 100.0 mg/kg/injection, schedule: Q01DX001 (ip), vehicle: saline 100 % of control | [5] 104 % of control | endpoint: mean survival time, dose: 100.0 mg/kg/injection, schedule: Q## X009 (ip), vehicle: saline with Tween-80 104 % of control | endpoint: mean survival time, dose: 200.0 mg/kg/injection, schedule: Q01DX001 (ip), vehicle: saline 100 % of control | [6] 92 % of control | endpoint: mean survival time, dose: 200.0 mg/kg/injection, schedule: Q## X009 (ip), vehicle: saline with Tween-80 92 % of control | endpoint: mean survival time, dose: 400.0 mg/kg/injection, schedule: Q01DX001 (ip), vehicle: saline 94 % of control

Cc1c(CC#N)cc(C)c2c3c([nH]c12)-c1ccccc1CC3
inactive: [7] 102 % of control | [1] 106 % of control | [2] 102 % of control | [3] 104 % of control

NC(=O)C(c1ccccc1)N1CCCCC1 (stereo not drawn)
inactive: endpoint: mean survival time, dose: 25.0 mg/kg/injection, schedule: Q01DX009 (ip), vehicle: Klucel (hydroxypropylcellulose) (HPC) 87 % of control | endpoint: mean survival time, dose: 25.0 mg/kg/injection, schedule: Q04DX003 (ip), vehicle: Klucel (hydroxypropylcellulose) (HPC) 96 % of control | endpoint: mean survival time, dose: 50.0 mg/kg/injection, schedule: Q01DX009 (ip), vehicle: Klucel (hydroxypropylcellulose) (HPC) 96 % of control | endpoint: mean survival time, dose: 50.0 mg/kg/injection, schedule: Q04DX003 (ip), vehicle: Klucel (hydroxypropylcellulose) (HPC) 100 % of control | endpoint: mean survival time, dose: 100.0 mg/kg/injection, schedule: Q01DX009 (ip), vehicle: Klucel (hydroxypropylcellulose) (HPC) 97 % of control | [8] 92 % of control and 90 % of control

COC(=O)c1cc(Cl)ccc1OCC(=O)O
inactive: endpoint: mean survival time, dose: 100.0 mg/kg/injection, schedule: Q01DX001 (ip), vehicle: Klucel (hydroxypropylcellulose) (HPC) 90 % of control | [8] 102 % of control | endpoint: mean survival time, dose: 200.0 mg/kg/injection, schedule: Q01DX001 (ip), vehicle: Klucel (hydroxypropylcellulose) (HPC) 93 % of control | [9] 101 % of control | endpoint: mean survival time, dose: 400.0 mg/kg/injection, schedule: Q01DX001 (ip), vehicle: Klucel (hydroxypropylcellulose) (HPC) 90 % of control | [10] 107 % of control

CN=C(NCc1ccccc1)c1ccc(NC(=O)c2ccc(C(=O)Nc3ccc(C(=NC)NCc4ccccc4)cc3)c(Cl)c2)cc1
inactive: endpoint: mean survival time, dose: 2.0 mg/kg/injection, schedule: Q01DX Z (ip), vehicle: carboxymethylcellulose (CMC) 92 % of control | endpoint: mean survival time, dose: 4.0 mg/kg/injection, schedule: Q01DX Z (ip), vehicle: carboxymethylcellulose (CMC) 105 % of control | endpoint: mean survival time, dose: 8.0 mg/kg/injection, schedule: Q01DX Z (ip), vehicle: carboxymethylcellulose (CMC) 105 % of control

OCCc1cc2ccccc2s1
inactive: [8] 107 % of control | [9] 103 % of control | [10] 113 % of control

ClCc1c(Cl)cccc1Cl
inactive: [1] 97 % of control | [2] 97 % of control | [3] 97 % of control

COc1cc2cc3c4cc(OC)c(OC)cc4cc[n+]3c(CCC(=O)O)c2cc1OC (tested in a mixture with another compound)
inactive: [7] 103 % of control | [1] 98 % of control | [2] 103 % of control

O=P(CCCCCCP(=O)(N1CC1)N1CC1)(N1CC1)N1CC1
inactive: endpoint: mean survival time, dose: 25.0 mg/kg/injection, schedule: Q01DX009 (ip), vehicle: carboxymethylcellulose (CMC) 112 % of control and 115 % of control | endpoint: mean survival time, dose: 50.0 mg/kg/injection, schedule: Q01DX009 (ip), vehicle: carboxymethylcellulose (CMC) 120 % of control and 121 % of control | endpoint: mean survival time, dose: 100.0 mg/kg/injection, schedule: Q01DX001 (ip), vehicle: carboxymethylcellulose (CMC) 116 % of control | endpoint: mean survival time, dose: 200.0 mg/kg/injection, schedule: Q01DX001 (ip), vehicle: carboxymethylcellulose (CMC) 103 % of control | endpoint: mean survival time, dose: 200.0 mg/kg/injection, schedule: Q01DX009 (ip), vehicle: carboxymethylcellulose (CMC) 98 % of control and 101 % of control

OCCOC(O)C(Cl)(Cl)Cl (stereo not drawn)
inactive: endpoint: mean survival time, dose: 100.0 mg/kg/injection, schedule: Q04DX002 (ip), vehicle: saline 100 % of control | endpoint: mean survival time, dose: 200.0 mg/kg/injection, schedule: Q04DX002 (ip), vehicle: saline 92 % of control | endpoint: mean survival time, dose: 400.0 mg/kg/injection, schedule: Q04DX002 (ip), vehicle: saline 95 % of control

O=C(O)c1ccc(CCCCCCl)cc1
inactive: [5] 103 % of control | [6] 111 % of control

— PubChem BioAssay AID248 (DTP/NCI, 2004)
